According to ChEMBL document CHEMBL1146440, “Brasilidine A, a new cytotoxic isonitrile-containing indole alkaloid from the actinomycete Nocardia brasiliensis” (J Nat Prod, 1997):
Converted amounts (≈) assume the structure as drawn.

Key:
L1210 = assay: Cytotoxicity against mouse L1210 cells; type: functional, cell-based
P388 [1] = assay: Cytotoxicity against mouse P388 cells; type: functional, cell-based
P388 [2] = assay: Cytotoxicity against mouse Adriamycin-resistant P388 cells; type: functional, cell-based
CHO [3] = assay: Cytotoxicity against CHO cells; type: cell-based, Cavia porcellus; conditions: Cricetulus griseus
CHO [4] = assay: Cytotoxicity against MDR1 gene transfected CHO cells; type: ADME, cell-based, Cavia porcellus; conditions: Cricetulus griseus

## COc1cccc2c1C(=O)c1c(O)c3c(c(O)c1C2=O)C[C@@](O)(C(=O)CO)C[C@@H]3O[C@H]1C[C@H](N)[C@H](O)[C@H](C)O1 [DOXORUBICIN]
L1210
  IC50: 0.09 µg/mL (≈ 0.166 µM)
P388 [1]
  IC50: 0.09 µg/mL (≈ 0.166 µM)
P388 [2]
  IC50: 0.55 µg/mL (≈ 1.01 µM)
CHO [3]
  IC50: 0.01 µg/mL (≈ 0.0184 µM)
CHO [4]
  IC50: 0.11 µg/mL (≈ 0.202 µM)
